Data taken from US20250073249A1, “STEROID COMPOUND, AND PREPARATION METHOD THEREFOR AND USE THEREOF” (SHANGHAI INSTITUTE OF MATERIA MEDICA, CHINESE ACADEMY OF …, priority 2022, published 2025).
Where two headings read alike, the source gives them in different places.

Key:
[1] = In vivo pharmacokinetics in rats after oral gavage; settings: male SD rats, PO 10 mg/kg
Experimental: Male SD rats were randomly divided into 6 groups, 3 rats per group. The rats were fasted but not water-deprived for 12-14 h one day before dosing. The test samples were then dissolved in a solvent of 5% DMSO+30% PEG400+65% (0.5% MC) and administered by gavage at 10 mg/kg. Food was provided 4 h after dosing. Blood samples (0.10 mL) were collected via the orbital sinus at 0, 15, 30 min, 1, 2, 4, 6, 8, and 24 h, with EDTA-K2 as anticoagulant. Blood samples were placed on ice after collection and centrifuged to separate plasma within 30 minutes (centrifugation conditions: 5000 rpm, 10 minutes, 4° C.). 50.0 μL of plasma sample (taken from −80° C. freezer, thawed naturally at room temperature and vortexed for 30 seconds) was added to a 1.5 mL centrifuge tube, followed by addition of 500 μL internal standard solution (methanol (TEDIA, HPLC grade), acetonitrile (TEDIA, HPLC grade), formic acid (FA, ACROS ORGANICS, HPLC grade), water was laboratory-made ultrapure water (100.0 ng·mL−1)). The mixture was vortexed for 60 seconds and centrifuged for 3 minutes (centrifugal force 12000 rpm). 100 μL of the supernatant was transferred to a 96-well injection plate containing an equal volume of water, mixed by shaking, and analyzed by LC-MS/MS with an injection volume of 10 μL. The data acquisition and control system software was Analyst 1.5.1 software (Applied Biosystem). The chromatographic sample peaks were integrated automatically. The ratio of sample peak area to internal standard peak area was used as an indicator for regression with sample concentration.
The pharmacokinetic parameters of representative compounds of the present invention were tested in male SD rats after oral gavage administration at 10 mg/kg according to the above conventional method to examine the pharmacokinetic characteristics of the compounds of the present invention in rats.

[2] = biological target: T1, AR(T877A) (Homo sapiens, UniProt P10275, T878A); experiment: Mutant AR antagonistic activity test, T877A (reporter gene in HEK293 cells); format: cell-based; settings: for IC50: HEK293 cells, DHT 10 nM, 24 hours, read-out: T877A IC50(nM) 1st gen AR antagonist resistant mutation
T1 construct: expressed in transfected cells; host or cells: HEK293
T1 sequence (P10275 1-920 T878A): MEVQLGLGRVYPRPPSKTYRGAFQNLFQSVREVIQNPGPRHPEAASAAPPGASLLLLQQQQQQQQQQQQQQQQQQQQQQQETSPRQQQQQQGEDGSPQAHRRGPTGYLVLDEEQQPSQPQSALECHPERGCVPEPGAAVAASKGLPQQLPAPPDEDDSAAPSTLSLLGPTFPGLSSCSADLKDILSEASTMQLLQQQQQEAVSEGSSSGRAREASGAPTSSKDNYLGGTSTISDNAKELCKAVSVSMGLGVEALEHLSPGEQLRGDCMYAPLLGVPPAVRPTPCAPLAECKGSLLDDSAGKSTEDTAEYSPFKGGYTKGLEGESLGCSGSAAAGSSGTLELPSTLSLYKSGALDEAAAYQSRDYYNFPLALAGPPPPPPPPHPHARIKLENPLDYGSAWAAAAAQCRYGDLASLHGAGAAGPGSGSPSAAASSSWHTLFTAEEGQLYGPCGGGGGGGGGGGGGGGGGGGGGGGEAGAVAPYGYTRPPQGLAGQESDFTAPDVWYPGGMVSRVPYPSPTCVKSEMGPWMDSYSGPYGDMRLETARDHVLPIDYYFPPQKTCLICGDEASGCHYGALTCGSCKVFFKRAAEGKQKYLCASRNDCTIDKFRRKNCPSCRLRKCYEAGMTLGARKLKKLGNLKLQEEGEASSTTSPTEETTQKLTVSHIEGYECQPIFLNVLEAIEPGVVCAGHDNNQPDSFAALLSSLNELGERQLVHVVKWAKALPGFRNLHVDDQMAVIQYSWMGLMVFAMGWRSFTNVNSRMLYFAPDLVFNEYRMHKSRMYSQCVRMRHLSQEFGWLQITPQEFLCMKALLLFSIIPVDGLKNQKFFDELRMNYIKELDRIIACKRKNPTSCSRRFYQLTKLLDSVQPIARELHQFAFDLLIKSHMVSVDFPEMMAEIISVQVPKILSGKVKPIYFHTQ
Experimental: HEK293 cells were cultured in DMEM supplemented with 10% FBS and 1% GlutaMax at 37° C. with 5% CO2. The day before transfection, the medium was changed to DMEM containing 10% charcoal-stripped FBS and 1% GlutaMax. […] The cell suspension was diluted with cell seeding solution, and the transfection reagent was added to achieve 500,000 cells/mL. Subsequently, 90 μL of cell suspension was seeded into each well of the assay plate. The next day, compounds were prepared: starting from 8 mM, 3-fold serial dilutions were performed in DMSO for a total of 8 points, then 500 nL was transferred to the compound plate using Echo. The compounds were then diluted with 40 μL of medium to 10× final concentration, and 10 μL was transferred to the cell plate and incubated at 37° C. for 30 minutes. Subsequently, 10 nL of DHT at a final concentration of 10 nM was transferred to each well of the assay plate using TECAN. After 24 hours of incubation, 100 μL of Steady-Glo was added to the assay plate and read on an Envision reader. Data were determined and analyzed using GraphPad Prism.

Compound	Kel [1]	MRTPO [1]	T1/2 [1]	tmax [1]	AUC(0-inf) ([1]; rat, plasma)	AUC(0-t) ([1]; rat, plasma)	Cmax ([1]; rat, plasma, read-out: Cmax)	IC50 [2]	Cmax [1]	T877A antagonistic activity, fold improvement compared to enzalutamide ([2]; ratio to enzalutamide IC50)
Cc1cn(C2=CCC3C4CC=C5C[C@@H](NC(=O)c6ccc(F)cc6F)CC[C@]5(C)C4CC[C@]23C)cn1 (stereo partly drawn) [Compound 37, N-((3S,10R,13S)-17-(4-methyl-1H-imidazol-1-yl)-10,13-dimethyl-2,3,4,7,8,9,10,11,12,13,14,15-dodecahydro-1H-cyclopenta[a]phenanthren-3-yl)-2,4-difluorobenzamide]	0.124 h⁻¹	10.0 h	6.02 h	6.00 h	24500 ng·h/mL	22500 ng·h/mL	1550 ng/mL	281 nM		
Cc1cn(C2=CCC3C4CC=C5C[C@@H](NC(=O)c6ccc(F)cc6)CC[C@]5(C)C4CC[C@]23C)cn1 (stereo partly drawn) [Compound 33, N-((3S,10R,13S)-17-(4-methyl-1H-imidazol-1-yl)-10,13-dimethyl-2,3,4,7,8,9,10,11,12,13,14,15-dodecahydro-1H-cyclopenta[a]phenanthren-3-yl)-4-fluorobenzamide]	0.214 h⁻¹	6.03 h	3.28 h	4.00 h	69500 ng·h/mL	68900 ng·h/mL		79.8 nM	6431 ng/mL	1.4 fold
Cc1cn(C2=CCC3C4CC=C5C[C@@H](NC(=O)c6ccc(S(C)(=O)=O)cc6)CC[C@]5(C)C4CC[C@]23C)cn1 (stereo partly drawn) [Compound 35, N-((3S,10R,13S)-17-(4-methyl-1H-imidazol-1-yl)-10,13-dimethyl-2,3,4,7,8,9,10,11,12,13,14,15-dodecahydro-1H-cyclopenta[a]phenanthren-3-yl)-4-(methylsulfonyl)benzamide]								462 nM		
Cc1cn(C2=CCC3C4CC=C5C[C@@H](NC(=O)c6ccncc6)CC[C@]5(C)C4CC[C@]23C)cn1 (stereo partly drawn) [Compound 14, N-((3S,10R,13S)-10,13-dimethyl-17-(4-methyl-1H-imidazol-1-yl)-2,3,4,7,8,9,10,11,12,13,14,15-dodecahydro-1H-cyclopenta[a]phenanthren-3-yl)isonicotinamide]	0.252 h⁻¹	5.12 h	2.80 h	2.17 h	24800 ng·h/mL	24800 ng·h/mL		209 nM	2670 ng/mL	
